# Experimental data reported in PubChem BioAssay (NCI).
#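 The compound was tested at five concentrations on cells cultured in 96-well plates, with a 48-hour exposure period. At the GI50, growth is halved. TGI: total growth inhibition.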
# Experiments:
# Assay in all cases: NCI anticancer screen, dose series, 48 h
# HOP-62 NSCLC = tested on: HOP-62 NSCLC
# RPMI-8226 leukemia = tested on: RPMI-8226 leukemia
# SK-MEL-2 melanoma = tested on: SK-MEL-2 melanoma
# LOX IMVI melanoma = tested on: LOX IMVI melanoma
# A549 NSCLC = tested on: A549 NSCLC
# HS 578T breast = tested on: HS 578T breast
# UACC-62 melanoma = tested on: UACC-62 melanoma
# MALME-3M melanoma = tested on: MALME-3M melanoma
# HCC-2998 colon = tested on: HCC-2998 colon
# MCF7 breast = tested on: MCF7 breast
# OVCAR-8 ovarian = tested on: OVCAR-8 ovarian
# EKVX NSCLC = tested on: EKVX NSCLC
# OVCAR-4 ovarian = tested on: OVCAR-4 ovarian
# DU-145 prostate = tested on: DU-145 prostate
# NCI-H23 lung = tested on: NCI-H23 lung
# UO-31 renal = tested on: UO-31 renal
# SNB-19 CNS = tested on: SNB-19 CNS
# HOP-92 NSCLC = tested on: HOP-92 NSCLC
# M14 melanoma = tested on: M14 melanoma
# CCRF-CEM leukemia = tested on: CCRF-CEM leukemia
# SF-539 CNS = tested on: SF-539 CNS
# UACC-257 melanoma = tested on: UACC-257 melanoma
# SF-268 CNS = tested on: SF-268 CNS
# NCI-H522 lung = tested on: NCI-H522 lung
# SK-OV-3 ovarian = tested on: SK-OV-3 ovarian
# SK-MEL-5 melanoma = tested on: SK-MEL-5 melanoma
# SF-295 CNS = tested on: SF-295 CNS
# MDA-MB-231 breast = tested on: MDA-MB-231 breast
# T-47D breast = tested on: T-47D breast
# A498 renal = tested on: A498 renal
# BT-549 breast = tested on: BT-549 breast
# MDA-MB-435 = tested on: MDA-MB-435
# MOLT-4 leukemia = tested on: MOLT-4 leukemia
# COLO 205 colon = tested on: COLO 205 colon
# NCI-H226 lung = tested on: NCI-H226 lung
# SK-MEL-28 melanoma = tested on: SK-MEL-28 melanoma
# KM12 colon = tested on: KM12 colon
# RXF 393 renal = tested on: RXF 393 renal
# IGROV1 ovarian = tested on: IGROV1 ovarian
# NCI-H460 lung = tested on: NCI-H460 lung
# HT29 colon = tested on: HT29 colon
# PC-3 prostate = tested on: PC-3 prostate
# OVCAR-3 ovarian = tested on: OVCAR-3 ovarian
# 786-0 renal = tested on: 786-0 renal
# SW-620 colon = tested on: SW-620 colon
# NCI/ADR-RES ovarian = tested on: NCI/ADR-RES ovarian
# HCT-15 colon = tested on: HCT-15 colon
# ACHN renal = tested on: ACHN renal
# SNB-75 CNS = tested on: SNB-75 CNS
# SN12C renal = tested on: SN12C renal
# U251 CNS = tested on: U251 CNS
# OVCAR-5 ovarian = tested on: OVCAR-5 ovarian
# K-562 leukemia = tested on: K-562 leukemia
# HL-60(TB) leukemia = tested on: HL-60(TB) leukemia
# TK-10 renal = tested on: TK-10 renal
# HCT-116 colon = tested on: HCT-116 colon
# CAKI-1 renal = tested on: CAKI-1 renal
# SR leukemia = tested on: SR leukemia
structure (smiles),measurement,setting,value
COc1cc2c(cc1OCCCN1CCN(C(=S)SCCC(C#N)(c3ccccc3)c3ccccc3)CC1)N=C[C@@H]1CCCN1C2=O,GI50,HOP-62 NSCLC,121 nM
same,TGI,HOP-62 NSCLC,456 nM
same,GI50,RPMI-8226 leukemia,420 nM
same,GI50,SK-MEL-2 melanoma,1080 nM
same,TGI,SK-MEL-2 melanoma,2910 nM
same,GI50,LOX IMVI melanoma,721 nM
same,TGI,LOX IMVI melanoma,2030 nM
same,GI50,A549 NSCLC,1250 nM
same,TGI,A549 NSCLC,7360 nM
same,GI50,HS 578T breast,560 nM
same,TGI,HS 578T breast,3680 nM
same,GI50,UACC-62 melanoma,1130 nM
same,TGI,UACC-62 melanoma,2380 nM
same,GI50,MALME-3M melanoma,938 nM
same,TGI,MALME-3M melanoma,2190 nM
same,GI50,HCC-2998 colon,1510 nM
same,TGI,HCC-2998 colon,2940 nM
same,GI50,MCF7 breast,330 nM
same,TGI,MCF7 breast,1530 nM
same,GI50,OVCAR-8 ovarian,1310 nM
same,TGI,OVCAR-8 ovarian,> 48300 nM
same,GI50,EKVX NSCLC,2170 nM
same,TGI,EKVX NSCLC,5270 nM
same,GI50,OVCAR-4 ovarian,2150 nM
same,TGI,OVCAR-4 ovarian,> 43700 nM
same,GI50,DU-145 prostate,469 nM
same,GI50,NCI-H23 lung,1070 nM
same,TGI,NCI-H23 lung,2700 nM
same,GI50,UO-31 renal,1100 nM
same,TGI,UO-31 renal,2320 nM
same,GI50,SNB-19 CNS,2190 nM
same,GI50,HOP-92 NSCLC,545 nM
same,TGI,HOP-92 NSCLC,3850 nM
same,GI50,M14 melanoma,1170 nM
same,TGI,M14 melanoma,2670 nM
same,GI50,CCRF-CEM leukemia,235 nM
same,TGI,CCRF-CEM leukemia,537 nM
same,GI50,SF-539 CNS,1450 nM
same,TGI,SF-539 CNS,3370 nM
same,GI50,UACC-257 melanoma,1990 nM
same,TGI,UACC-257 melanoma,3900 nM
same,GI50,SF-268 CNS,386 nM
same,GI50,NCI-H522 lung,523 nM
same,TGI,NCI-H522 lung,2430 nM
same,GI50,SK-OV-3 ovarian,2520 nM
same,TGI,SK-OV-3 ovarian,6390 nM
same,GI50,SK-MEL-5 melanoma,1310 nM
same,TGI,SK-MEL-5 melanoma,2750 nM
same,GI50,SF-295 CNS,1110 nM
same,TGI,SF-295 CNS,3810 nM
same,GI50,MDA-MB-231 breast,1320 nM
same,TGI,MDA-MB-231 breast,3190 nM
same,GI50,T-47D breast,1580 nM
same,GI50,A498 renal,1000 nM
same,TGI,A498 renal,2320 nM
same,GI50,BT-549 breast,1070 nM
same,TGI,BT-549 breast,3790 nM
same,GI50,MDA-MB-435,555 nM
same,TGI,MDA-MB-435,2940 nM
same,GI50,MOLT-4 leukemia,375 nM
same,GI50,COLO 205 colon,1300 nM
same,TGI,COLO 205 colon,2780 nM
same,GI50,NCI-H226 lung,1510 nM
same,TGI,NCI-H226 lung,3150 nM
same,GI50,SK-MEL-28 melanoma,1650 nM
same,TGI,SK-MEL-28 melanoma,3070 nM
same,GI50,KM12 colon,1640 nM
same,GI50,RXF 393 renal,192 nM
same,TGI,RXF 393 renal,360 nM
same,GI50,IGROV1 ovarian,381 nM
same,TGI,IGROV1 ovarian,1740 nM
same,GI50,NCI-H460 lung,891 nM
same,GI50,HT29 colon,944 nM
same,TGI,HT29 colon,> 20700 nM
same,GI50,PC-3 prostate,1450 nM
same,TGI,PC-3 prostate,> 100000 nM
same,GI50,OVCAR-3 ovarian,488 nM
same,TGI,OVCAR-3 ovarian,1260 nM
same,GI50,786-0 renal,493 nM
same,TGI,786-0 renal,1080 nM
same,GI50,SW-620 colon,514 nM
same,TGI,SW-620 colon,1940 nM
same,GI50,NCI/ADR-RES ovarian,3690 nM
same,TGI,NCI/ADR-RES ovarian,> 51500 nM
same,GI50,HCT-15 colon,1680 nM
same,TGI,HCT-15 colon,3480 nM
same,GI50,ACHN renal,875 nM
same,TGI,ACHN renal,2120 nM
same,GI50,SNB-75 CNS,1310 nM
same,TGI,SNB-75 CNS,2900 nM
same,GI50,SN12C renal,820 nM
same,TGI,SN12C renal,2500 nM
same,GI50,U251 CNS,405 nM
same,TGI,U251 CNS,1430 nM
same,GI50,OVCAR-5 ovarian,1140 nM
same,TGI,OVCAR-5 ovarian,2440 nM
same,GI50,K-562 leukemia,573 nM
same,GI50,HL-60(TB) leukemia,876 nM
same,GI50,TK-10 renal,1090 nM
same,TGI,TK-10 renal,2870 nM
same,GI50,HCT-116 colon,388 nM
same,TGI,HCT-116 colon,1560 nM
same,GI50,CAKI-1 renal,357 nM
same,TGI,CAKI-1 renal,1480 nM
same,GI50,SR leukemia,431 nM
